# Experimental data as given in ChEMBL document CHEMBL1201862, “PubChem BioAssay data set” (2004).
#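 Method: 48-hour compound exposure of cells in 96-well plates, five concentrations, linear interpolation of endpoints. GI50 is the concentration that inhibits growth by half.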 The source made the active and inactive calls. Cut-off read from the data, not from the text of the source: active = GI50 up to about 1.1 µM and inactive = higher.
# How the values were obtained:
# Test in all cases: NCI-60 cell line screen, 48 h
# [1] = tested on: ACHN
# [2] = tested on: HOP-92
# [3] = tested on: OVCAR-4
# [4] = tested on: MDA-N
# [5] = tested on: HOP-62
# [6] = tested on: K562
# [7] = tested on: HL-60
# [8] = tested on: NCI/ADR-RES
# [9] = tested on: IGROV-1
# [10] = tested on: NCI-H23
# [11] = tested on: EKVX
# [12] = tested on: NCI-H460
# [13] = tested on: LOX IMVI
# [14] = tested on: SF-295
# [15] = tested on: COLO 205
# [16] = tested on: Hs-578T
# [17] = tested on: PC-3
# [18] = tested on: HT-29
# [19] = tested on: SK-MEL-2
# [20] = tested on: SNB-75
SMILES,GI50 [1],GI50 [2],GI50 [3],GI50 [4],GI50 [5],GI50 [6],GI50 [7],GI50 [8],GI50 [9],GI50 [10],GI50 [11],GI50 [12],GI50 [13],GI50 [14],GI50 [15],GI50 [16],GI50 [17],GI50 [18],GI50 [19],GI50 [20]
COc1cc(NS(C)(=O)=O)ccc1Nc1ccnc2ccc3[nH]ccc3c12,18.4 µM (inactive),11.9 µM (inactive),14.3 µM (inactive),16.2 µM (inactive),15.8 µM (inactive),10.9 µM (inactive),31.5 µM (inactive),> 100 µM (inactive),16.1 µM (inactive),13.7 µM (inactive),19.4 µM (inactive),18.2 µM (inactive),15.2 µM (inactive),18.2 µM (inactive),17 µM (inactive),21.3 µM (inactive),13.1 µM (inactive),16.8 µM (inactive),16.7 µM (inactive),
Cn1c(N)nc(-c2ccc(Cl)cc2)c1SSc1c(-c2ccc(Cl)cc2)nc(N)n1C,2.38 µM (inactive),1.97 µM (inactive),1.75 µM (inactive),1.77 µM (inactive),2.86 µM (inactive),2.36 µM (inactive),1.05 µM (active),2.1 µM (inactive),2.99 µM (inactive),1.63 µM (inactive),2.73 µM (inactive),3.45 µM (inactive),,6.93 µM (inactive),1.94 µM (inactive),27.1 µM (inactive),1.84 µM (inactive),2.3 µM (inactive),17.8 µM (inactive),7.67 µM (inactive)
CCOP(=O)(OCC)OC1CC(n2cc(C)c(=O)n(C)c2=O)OC1CO[Si](C)(C)C(C)(C)C (stereo not given),> 100 µM (inactive),,> 100 µM (inactive),> 100 µM (inactive),79.6 µM (inactive),48.4 µM (inactive),18.1 µM (inactive),46.5 µM (inactive),> 100 µM (inactive),> 100 µM (inactive),24.4 µM (inactive),58.3 µM (inactive),> 100 µM (inactive),67 µM (inactive),> 100 µM (inactive),46.6 µM (inactive),29.1 µM (inactive),> 100 µM (inactive),> 100 µM (inactive),75.9 µM (inactive)
CCc1n[nH]c(=O)n1-c1ccncc1,> 100 µM (inactive),> 100 µM (inactive),> 100 µM (inactive),> 100 µM (inactive),> 100 µM (inactive),> 100 µM (inactive),> 100 µM (inactive),> 100 µM (inactive),> 100 µM (inactive),> 100 µM (inactive),> 100 µM (inactive),> 100 µM (inactive),> 100 µM (inactive),> 100 µM (inactive),> 100 µM (inactive),> 100 µM (inactive),> 100 µM (inactive),> 100 µM (inactive),,> 100 µM (inactive)
Cc1ccc(C(=O)/C=C2\Nc3ccccc3NC2=O)cc1,3.4 µM (inactive),3.28 µM (inactive),1.79 µM (inactive),32.6 µM (inactive),2.04 µM (inactive),> 100 µM (inactive),> 100 µM (inactive),5.13 µM (inactive),1.07 µM (active),8.05 µM (inactive),2.96 µM (inactive),6.43 µM (inactive),7.94 µM (inactive),4.17 µM (inactive),> 100 µM (inactive),2.21 µM (inactive),4.84 µM (inactive),20 µM (inactive),4.11 µM (inactive),
